Data from patent US9849435B2, “Maleic anhydride polymer-stabilized microcapsules” (Firmenich SA, priority 2013, dated 2017).

Legend:
Oil properties: Log P = format: physicochemical; settings: oil ingredient
[1] = Oil properties: volatility; format: physicochemical; settings: oil ingredient

Log P (Oil properties: Log P) | Volatility [1] [µg/L] | logP (Oil properties: Log P) | Compound
3.47 | 1391 |  | C=CC(C)CCCC(C)(C)O (centres unmarked) [Dihydromycenol]
3.012 |  |  | CC(=O)/C=C/C1=C(C)CCCC1(C)C [β-Ionone]
4.16 | 371 |  | C/C=C/C(=O)C1C(C)C=CCC1(C)C (centres unmarked) [Delta-Damascone]

Second part, the compound before the results:

Compound | Log P (Oil properties: Log P) | Volatility [1] [µg/L] | logP (Oil properties: Log P)
C=C(C)[C@H]1CC=C(C)CC1 [Limonene] | 4.38 | 14183 | 
OCCc1ccccc1 [Phenylethyl Alcohol] |  |  | 1.52
